From patent publication US8258099B2, “Pin1-modulating compounds and methods of use thereof” (Max-Planck-Gesellschaft zur Foerderung der Wissenschaften …, priority 2004, dated 2012) come the findings set out here.

SMILES strings stand for the structures. Square brackets hold non-standard residues; d marks the D form. Peptide text beside a SMILES is read from it. d(pT) = C[C@H](OP(=O)(O)O)[C@@H](N)C(=O)O; 2Nal = N[C@@H](Cc1ccc2ccccc2c1)C(=O)O; Pip = O=C(O)[C@@H]1CCCCN1

One assay concerns X. laevis embryos. The assay can be described thus: Microinjection in X. laevis embryos, cell division. In kind it is in vivo. The settings on record: for number of vital embryos: 5 hours. As for the experimental part:
FIG. 8 depicts the blocking of cell division by the injection of peptide 17 in X. laevis embryos. 50-300 pmol of peptide 17 or 300 pmol of its nonphosphorylated derivative (control) dissolved in 10 nl PBS buffer were microinjected in the animal half of X. laevis embryos at stage 2 of development. Embryos with large and/or apoptotic appearing cells surrounded by normally developing cells were counted after further 5 hours (stage 8-9) of development. […] Each value is the average of four independent experiments.
FIGS. 9A-F depicts phenotypic analysis of X. laevis embryos after injection of peptide 17. 300 pmol of peptide 17 or its nonphosphorylated derivative dissolved in 10 nl PBS buffer were injected in the animal half of X. laevis embryos at stage 2 of development. 1.5 hour at stage 6 (A), 2.5 hours at stage 7 (B) and 4-5 hours at stage 8-9 (C, D) after injection enlarged cells became visible. Cells that are blocked in cell division are marked with a white arrow. Controls of uninjected embryos of stage 8-9 and embryos that were injected with 300 pmol of the nonphosphorylated derivative of peptide 17 are shown in panels E and F. The site where the nonphosphorylated derivative of peptide 17 was injected is marked with a white arrow (F).
FIGS. 10A-D depict the rescue of peptide 17 caused cell division block in X. laevis embryos by hPin1 (A, B) and different hPin1 variants (C, D). FIG. 10A depicts the time course of V5-tagged hPin1 expression was analyzed by preparation of X. laevis embryo lysate 1, 2 and 4 hours after injection of 1, 2 or 3 ng of V5-tagged hPin1 mRNA. In every case, the injected volume was 10 nl. Lysates were prepared in lysis buffer containing phosphatase and protease inhibitors. Samples were separated by SDS PAGE followed by western blotting. Endogenous XlPin1 and V5-tagged hPin1 were detected using an anti hPin1 PPIase domain antiserum as primary antibody followed by incubation with a horseradish peroxidase-conjugated secondary antibody. Visualization was done using the SuperSignal® substrate. […] In every case, the whole volume of injection was 10 nl. The indicated amount of the mRNA was injected in the animal half of 30 embryos at stage 2 of development. Embryos with large and/or apoptotic appearing cells surrounded by normally developed cells were counted after additional 5 hours of development (stage 8-9). […] Each percentage of vital embryos shown in the figure is the average of four independent experiments. FIG. 10C indicates the expression of V5-tagged hPin1 variants was evaluated by preparation of embryo lysate after 4 hours of injection of the respective mRNA (2 ng) in X. laevis embryos. Lysates were prepared in lysis buffer containing phosphatase and protease inhibitors. Samples were separated using SDS PAGE followed by western blot analysis. Endogenous XlPin1 and injected V5-tagged hPin1 variants were detected using an anti hPin1 PPIase domain antiserum as primary antibody and a horseradish peroxidase-conjugated secondary antibody. Visualization was done by a chemiluminescent reaction using the SuperSignal® substrate (Pierce). FIG. 10D depicts 250 pmol of peptide 17 was coinjected with 2 ng mRNA of the indicated V5-tagged hPin1 variant (whole volume 10 nl) in the animal half of 30 X. laevis embryos at stage 2 of development. Results were analyzed as described for FIG. 10B. Each percentage of vital embryos shown in the figure is the average of four independent experiments.
Microinjection was done into the animal half of X. laevis embryos at stage 2 of development. In every case, the injection volume was 10 nl. Immunofluorescence studies of frozen X. laevis embryo sections were performed as previously described (Julius et al., 2000). Ten-micrometer cryosections of stage 8 embryos were labelled using a monoclonal anti hPin1 antibody (mouse) followed by incubation with Alexa Fluor 546™-conjugated anti mouse antibody of goat serum (Molecular Probes). […]

The target in another assay is T1, full length hPin1 (Homo sapiens, UniProt Q13526).
T1 construct: The protease free assay ensures reliable measurement of IC50 values for the full-length hPin1
The assay can be described thus: Isothermal titration calorimetry (ITC), full length hPin1. In kind it is binding. As for the experimental part: FIGS. 3A-B depicts a thermodynamic characterization of the binding of peptide 17 towards full length hPin1 by isothermal titration calorimetry (ITC). FIG. 3A depicts peaks that represent the heat evolved after injection of peptide 17 into the sample cell containing hPin1. After the 11th injection only the heat of dilution is observed. The experiment was performed at 10 C. FIG. 3B depicts integrals of the corresponding peaks of panel A are plotted against the molar ratio of peptide 17 and hPin1. The solid line represents a nonlinear least squares fit analysis of the binding heat assuming a single binding site model with the following parameters: ΔHbind=−4561±36 cal/mol, TΔSbind=5433±529 cal/mol, n=0.96 (binding stoichiometry) and KAss=5.18×10^7±7×10^6 M^−1 (association constant).
Calorimetric experiments were performed using a VP-ITC titration calorimeter (MicroCal, Inc, Northampton, Mass.) at 10° C. All solutions were degassed under vacuum prior to use. Solutions of hPin1 and hPin1 PPIase domain were dialyzed against 10 mM Hepes (pH 7.8). The protein concentration in the sample cell was adjusted to 6.5 μM using the same batch of buffer. Protein concentrations were determined as described above. The volume of the protein solution in the sample cell was 1.4 ml. The injection syringe was filled with 300 μl solution of peptide 17 (see table III) (250 μM in the same batch of buffer as used for dialyses). Each titration experiment consisted of a single 1 μl injection followed by 16 identical injections of 5 μl solution of peptide 17.
In principle, minimally four forms of a competing substrate in the presence of hPin1 have to be considered, the free cis and trans isomers together with two Michaelis complexes. This four-site exchange model of PPIase catalysis involves understanding predisposing factors of the stability of hPin1/substrate complexes, expected to be weaker, than the stability for those formed by phosphopeptides lacking substrate properties. The consequent increase in inhibitory potency could be realized by a transition state destabilizing substitution in peptide 15. Previous studies have shown that following C^α-stereocenter inversion of a substrate at the P1 position the parvulins fully retain substrate-like active site affinity for the derivatives while catalytic rate acceleration is abolished (Schiene et al., 1998). […] To optimize solute diffusion after mechanical injection of the Pin1 binding peptides into the viscous Xenopus laevis egg cytosol, the molecular weight of 1376.5 for peptide 16 was reduced to 823.8 for peptide 17. Following chain truncation peptide 17 maintained high affinity for Pin1 (Table III). To ensure domain selectivity, the binding of peptide 17 towards hPin1 was characterized using the isothermal titration calorimetry (ITC). […] The dissociation constant determined with ITC is in the same range as obtained in the protease-free PPIase assay (Table III).

Setting [1] is: ITC, 10° C., single binding site model.

T1 sequence (Q13526 whole entry): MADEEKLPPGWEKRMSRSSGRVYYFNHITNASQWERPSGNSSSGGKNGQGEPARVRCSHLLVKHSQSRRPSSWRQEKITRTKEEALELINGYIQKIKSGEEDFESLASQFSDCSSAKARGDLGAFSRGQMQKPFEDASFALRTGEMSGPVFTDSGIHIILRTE

As for `CC(=O)N[C@@H](Cc1ccccc1)C(=O)N[C@@H](C(=O)N1CCCC[C@H]1C(=O)N[C@@H](Cc1ccc2ccccc2c1)C(=O)N[C@@H](CCC(N)=O)C(N)=O)[C@H](C)OP(=O)(O)O` [Peptide 17, Ac-Phe-D-Thr(PO3H2)-Pip-Nal-Gln-NH2] (Ac-F[d(pT)][Pip][2Nal]Q-NH2), the “number of vital embryos” value in the assay with X. laevis embryos (250 pmol peptide 17, coinjection of 2 ng of V5-tagged hPin1 mRNA) is listed as “up to 73%”. In addition, in the assay on X. laevis embryos (250 pmol peptide 17, without coinjection of mRNA), the “number of vital embryos” value is on record as 18%. Further, in the assay with X. laevis embryos (300 pmol, stage 2 embryos, examined 5 hours after injection), the “normal embryos after microinjection” value is given as “very low number of normal embryos”. For the same compound, the “effect on development of the embryos” value in the assay on X. laevis embryos (microinjection at stage 2) was “cell cycle blockage and embryonic death”. The affinity at full length hPin1, expressed as Kd, was 19.3 ± 2.6 nM. On full length hPin1 (setting [1]), the “KAss (association constant)” value was determined as 5.18e+07 ± 7e+06 M⁻¹, the “binding enthalpy ΔHbind” value was -4.561 ± 0.036 kcal/mol, the “binding entropy TΔSbind” value is 5.433 ± 0.529 kcal/mol and the “n (binding stoichiometry)” value stood at 0.96. In addition, the “fold tighter binding of D isomer compared to L isomer” value at full length hPin1 (Pin1) is reported as 30 fold.
